The record followed here is ChEMBL document CHEMBL2390876, “Synthesis and evaluation of 4,5-dihydro-5-methylisoxazolin-5-carboxamide derivatives as VLA-4 antagonists” (Bioorg Med Chem Lett, 2013).

The nature of data set [1]: in vitro. To be noted: rat, liver microsomes.
Data set [2] is described as follows: in vitro. To be noted: human, liver microsomes. (In general: Liver microsomes are a subcellular fraction often used to study metabolism.)
A short description of data set [3]: in vitro. To be noted: mouse, liver microsomes.

One may read the amount remaining as what is left of the initial amount, in per cent. High values mean greater stability, low ones a greater loss.

For `CC(C1=NOC(C)(C(=O)N[C@@H](Cc2ccc(NC(=O)c3c(Cl)cccc3Cl)cc2)C(=O)O)C1)c1ccccc1` (stereo partly drawn), the fraction remaining at 0.5 h in “in vitro [1]” was determined as 84.5%; in the data set “in vitro [2]”, 95%; in the data set “in vitro [3]”, 99%.
